Consider one compound from patent US4720497A, “6-purinyl N-/2-chloroethyl/carbamate and thiocarbamate and process for the preparation thereof” (SPOFA, Spojene Podniky pro Zdravotnickou Vyrobu, priority 1984, dated 1988).

Bounds are passed on as bounds.

The subject of one series is Crocker tumor (S180). The series is described as follows: Antitumor activity against Crocker tumor (S180) in mice, tumor weight (Example 3). Format: in vivo, female mice H. The following applies: S180, mice H, p.o. 200 or 100 mg/kg once a day, eight times; day 14. From the text: The antineoplastic activity of the compounds of the invention has been investigated by testing the compounds of the chemical group "in vivo" against experimental rodent tumors such as Crocker's sarcoma (S180), solid-type Ehrlich carcinoma (STE), kreb's ascites tumor (Kr2), all maintained in mice H, Gardner lymphosarcoma (LsG, C3H mice), P388 and L1210 leukemias (DBA2 mice), Zajdela ascites hapatoma (ZAH, Wistar rats), Yoshida ascites reticulosarcoma (Y, Wistar rats) and B16 melanoma (C57B16 mice) in experiments according to Jelinek, V. (Neoplasma 12, 469 (1969); ibid. 7, 146 (1960) and "in vitro" experiments using radioactive precursors of nucleic acids and proteins according to Miko, M. et al. (Cancer Res. 39, 4242 (1979); Neoplasma 26, 449 (1979); ibid. 16, 161--1969) with minor modifications (Mattern J.: Studies on the Drug Sensitivity of Short Term Cultured Tumor Cell Suspensions. In "Human Tumors in Short Term Culture" (Dendy, P. P. ed.), p. 301, Academic Press 1976). Therapeutic synergism has been studied by the method of Carter, W. H. et al. (cf. Cancer Res. 42, 2963--1982).
Sixty female mice H weighing approximately 20 g are divided into three groups: one control group and two experimental groups of 20 animals each. A lethal dose of the Crocker tumor (S180) homogenate is implanted subcutaneously in all the animals. […]

The nature of series [1]: Toxicity and tolerability by oral route. Format: in vivo, small rodents; rat; mouse; man. From the text: The compounds described herein can be administered to suitable biological subjects, particularly mammals, for their therapeutic antitumor effects, by conventional modes of administration alone, but preferably as active ingredients with any conventional suitable non-toxic pharmaceutical carrier, dissolved or suspended, for example, in water, saline, polyethylene or polypropylene alcohols, etc. The administration is preferably by the oral route. […]. The dosage administered will be dependent upon the type of tumor for which treatment is desired, the type of biological subject involved, weight, body surface, localization of the tumor, its morphological type, the frequency of treatment, individual tolerance and responsiveness of each subject, etc; for example, by oral route, the prolonged administration of 100, 200 mg/kg daily appears to be well tolerated both in the rat and in the mouse. The assessment drawn from the biological tests is that doses of 20 mg/kg (e.g. about 740 mg/m^2) may be regarded as well tolerated in man.

In general, LD50 refers to the dose at which mortality reaches 50%. A low value points to greater toxicity. Turning to `O=C(NCCCl)Sc1ncnc2nc[nH]c12` [Substance Ia, 6-[N-(2-Chloroethyl)carbamoyl]thiopurine], the “average values of the tumor weight vs non-treated control” value in the series with Crocker tumor (S180) is “Statistically significantly lower average values of the tumor weight”. The same compound displayed an LD50 in series [1] (in vivo, small rodents, oral route) of at least 3000 mg/kg. Besides, the toxicity entry in series [1] (in words) is listed as “practically non-toxic”.
